Source: patent publication US9751919B2, “Antimicrobial compositions comprising a hyaluronic acid binding peptide and a β-lactam antibiotic” (priority 2012, dated 2017)
Marks after values point to notes of the source that are not given here.

Legend:
Experiment in all cases: Checkerboard assay (FIC index)
[1] = tested on: HA-MRSA; type: cell-based, Staphylococcus aureus
Description: (§1) Checkerboard assays were carried out as described by Bonapace et al.
(§2) Diagnostic Microbiology and Infectious Diseases 2002; 44:363-366. In brief, checkerboard assays were performed in 96 well microtitre trays using an 8-by-8 well configuration. […] 96-well custom designed microtitre plates contained 100 ul/well of cation adjusted Mueller-Hinton broth (eg. for Enterobacteriaceae) with or without lysed horse blood (2-5% V/V) [eg. for S. pneumoniae] and were inoculated to achieve a final concentration of approximately 5×10^5 CFU/ml and incubated in ambient air for 24 hours prior to reading. Colony counts were performed periodically to confirm inocula. Quality control was performed every two weeks using a variety of ATCC QC organisms including; S. pneumoniae 49619, S. aureus 29213, E. faecalis 29212, E. coli 25922 and P. aeruginosa 27853. […] All peptides were assessed for synergy with β-lactams and vancomycin. For all antimicrobials as well as the peptides, CLSI criteria were used.
(§3) The fractional inhibitory concentration index (FIC index) was used to interpret synergy, antagonism or additivity/indifference. FIC index=FIC of drug A+FIC of drug B where:
(§4) The FIC of drug A and drug B was calculated as follows, FIC drug A=MIC of drug A in combination/MIC of drug A alone and FIC of drug B=MIC of drug B in combination/MIC of drug B alone. Synergy was defined as FIC index ≦0.5, additivity/indifference defined as a FIC between 0.5 and 4 and antagonism defined as an FIC index >4.
(§5) The fractional inhibitory concentration index (FIC index) was used to interpret synergy, antagonism or additivity/indifference. FIC index=FIC of drug A+FIC of drug B where the FIC of drug A and drug B was calculated as follows, FIC drug A=MIC of drug A in combination/MIC of drug A alone and FIC of drug B=MIC of drug B in combination/MIC of drug B alone. Synergy was defined as FIC index ≦0.5, additivity/indifference defined as an FIC of between 0.5 and 4 and antagonism defined as an FIC index >4.
(§6) The checkerboard assays were carried out as described by Eliopoulos and Moellering (Chapter 9) in Antibiotic in Laboratory Medicine, Lorian Ed. 1996 as well as Bonapace et al. Diagnostic Microbiology and Infectious Diseases 2002; 44:363-366 and Bonapace et al. Diagnostic Microbiology and Infectious Diseases 2000; 38:43-50. In brief, checkerboard assays were performed in 96 well microtitre trays using an 8-by-8 well configuration. […] 96-well custom designed microtitre plates contained 100 ul/well of cation adjusted Mueller-Hinton broth (eg. for Enterobacteriaceae) with or without lysed horse blood (2-5% V/V) [eg. for S. pneumoniae] and were inoculated to achieve a final concentration of approximately 5×10^5 CFU/ml and incubated in ambient air for 24 hours prior to reading. Colony counts were performed periodically to confirm inocula. Quality control was performed every two weeks using a variety of ATCC QC organisms including; S. pneumoniae 49619, S. aureus 29213, E. faecalis 29212, E. coli 25922 and P. aeruginosa 27853.
(§7) The FIC of drug A and drug B is calculated as follows, FIC drug A=MIC of drug A in combination/MIC of drug A alone and FIC of drug B=MIC of drug B in combination/MIC of drug B alone. Synergy is defined as FIC index ≦0.5, additivity/indifference FIC >0.5-4 and antagonism FIC index >4.
(§8) These agents were obtained as laboratory grade powders from their respective manufacturers. Stock solutions were prepared and dilutions made as described by the Clinical Laboratory Standards Institute (2005 CLSI).

[2] = tested on: CA-MRSA; type: cell-based, Staphylococcus aureus
Description: as §1, §2, §3, §4, §5, §6, §7, §8

[3] = tested on: VRSA; type: cell-based, Staphylococcus aureus
Description: as §1, §2, §3, §4, §5, §6, §7, §8

[4] = tested on: S. pneumoniae; type: cell-based, Streptococcus pneumoniae; settings: antibiotic combined with PEP35;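 note: each agent diluted from 0.03 to 4 times its MIC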
Description: as §6, with “27853. For all antimicrobials as well as PEP35, CLSI criteria was used.” for “27853.”
as §3, §7
(§9) Antimicrobials used included PEP35, cefazolin, ceftriaxone, vancomycin, linezolid, tigecycline and daptomycin versus Gram-positive cocci and PEP35, gentamicin, levofloxacin, piperacillin/tazobactam, meropenem and colistin (Polymyxin E) versus Gram-negative bacilli. These agents were obtained as laboratory grade powders from their respective manufacturers. Stock solutions were prepared and dilutions made as described by the Clinical Laboratory Standards Institute (2005 CLSI).
(§10) Organisms included Gram-positive cocci (2 strains of each): Methicillin-susceptible Staphylococcus aureus (MSSA), community-associated (CA) and healthcare-associated (HA) methicillin-resistant Staphylococcus aureus (MRSA), vancomycin-intermediate Staphylococcus aureus (VISA), vancomycin-resistant Staphylococcus aureus (VRSA), methicillin-resistant Staphylococcus epidermidis (MRSE), Streptococcus pyogenes, Streptococcus agalactiae, Streptococcus pneumoniae, Enterococcus faecalis, Enterococcus faecium and vancomycin-resistant enterococcus (VRE). Gram-negative bacilli tested (2 strains of each) included: E. coli, Pseudomonas aeruginosa, Klebsiella pneumoniae, K. oxytoca, Enterobacter cloacae, P. mirabilis and Stenotrophomonas maltophilia. MIC testing, following two subcultures from frozen stock were determined by the CLSI 2005 approved broth microdilution method.

[5] = tested on: S. pyogenes; type: cell-based, Streptococcus pyogenes; settings: antibiotic combined with PEP35
Description: as §6, with “27853. For all antimicrobials as well as PEP35, CLSI criteria was used.” for “27853.”
as §3, §7, §9, §10

[6] = antibiotic combined with PEP35 (added together), HA-MRSA 70798 (USA100/800)
[7] = antibiotic combined with PEP35 (added together), HA-MRSA 77090 (USA100/800)
[8] = antibiotic combined with PEP35 (added together), CA-MRSA 69615 (USA400)
[9] = antibiotic combined with PEP35 (added together), CA-MRSA 70857 (USA400)
[10] = antibiotic combined with PEP35 (added together), VRSA 105
[11] = antibiotic combined with PEP35 (added together), VRSA 106
[12] = S. pneumoniae-Pen I 72302 (MHB)
[13] = S. pneumoniae-Pen I 78663 (MHB)
[14] = S. pneumoniae-Pen R 76065 (MHB)
[15] = S. pneumoniae-Pen R 78519 (MHB)
[16] = S. pneumoniae-Pen S 70400 (MHB)
[17] = S. pneumoniae-Pen S 71263 (MHB)

## CCCCCCCCCC(=O)N[C@@H](Cc1c[nH]c2ccccc12)C(=O)N[C@H](CC(N)=O)C(=O)N[C@@H](CC(=O)O)C(=O)N[C@@H]1C(=O)NCC(=O)N[C@@H](CCCN)C(=O)N[C@@H](CC(=O)O)C(=O)N[C@H](C)C(=O)N[C@@H](CC(=O)O)C(=O)NCC(=O)N[C@H](CO)C(=O)N[C@@H]([C@H](C)CC(=O)O)C(=O)N[C@@H](CC(=O)c2ccccc2N)C(=O)O[C@@H]1C [Daptomycin, daptomycin]
[1]; [6]
  Avg ΣFIC (range): 0.99 (0.53-1.5)
[1]; [7]
  Avg ΣFIC (range): 1.27 (1.015-2.03)
[2]; [8]
  Avg ΣFIC (range): 1.18 (1.015-1.5)
[2]; [9]
  Avg ΣFIC (range): 1.18 (1.015-1.5)
[3]; [10]
  Avg ΣFIC (range): 0.52 (0.37-0.62)
[3]; [11]
  Avg ΣFIC (range): 0.91 (0.56-1.25)
[4]; [12]
  Avg ΣFIC (range): 0.99 (0.62-1.25)
[4]; [13]
  Avg ΣFIC (range): 1.19 (1.03-1.5)
[4]; [14]
  Avg ΣFIC (range): 1.09 (0.56-1.5)
[4]; [15]
  Avg ΣFIC (range): 1.19 (1.03-1.5)
[4]; [16]
  Avg ΣFIC (range): 1.21 (1.03-1.5)
[4]; [17]
  Avg ΣFIC (range): 1.39 (1.03-2.5)
[5]; S. pyogenes 77765 (MHB)
  Avg ΣFIC (range): 1.19 (1.03-1.5)
[5]; S. pyogenes 79531 (MHB)
  Avg ΣFIC (range): 1.19 (1.03-1.5)

## CC(=O)NC[C@H]1CN(c2ccc(N3CCOCC3)c(F)c2)C(=O)O1 [Linezolid, linezolid]
[1]; [6]
  Avg ΣFIC (range): 0.70 (0.5-1.06)
[1]; [7]
  Avg ΣFIC (range): 0.74 (0.53-1.06)
[2]; [8]
  Avg ΣFIC (range): 0.80 (0.515-1.12)
[2]; [9]
  Avg ΣFIC (range): 0.89 (0.5-1.12)
[3]; [10]
  Avg ΣFIC (range): 0.80 (0.5-1.06)
[3]; [11]
  Avg ΣFIC (range): 0.83 (0.5-1.12)
[4]; [12]
  Avg ΣFIC (range): 0.86 (0.56-1.12)
[4]; [13]
  Avg ΣFIC (range): 1.05 (0.75-1.25)
[4]; [14]
  Avg ΣFIC (range): 0.74 (0.53-1.12)
[4]; [15]
  Avg ΣFIC (range): 0.92 (0.75-1.12)
[4]; [16]
  Avg ΣFIC (range): 0.63 (0.5-1.06)
[4]; [17]
  Avg ΣFIC (range): 0.92 (0.62-1.12)
[5]; S. pyogenes 77765 (MHB)
  Avg ΣFIC (range): 1.05 (0.75-1.25)
[5]; S. pyogenes 79531 (MHB)
  Avg ΣFIC (range): 1.19 (1.03-1.5)

## C[C@@H](O)[C@H]1C(=O)N2C(C(=O)O)=C(S[C@@H]3CN[C@H](C(=O)N(C)C)C3)[C@H](C)[C@H]12 [Meropenem]
[1]; [6]
  Avg ΣFIC (range): 0.30
[1]; β-lactam combined with HybPEP35-1, HA-MRSA 70798 (USA100/800)
  Avg ΣFIC (range): 0.38
[1]; β-lactam combined with PEP-52, HA-MRSA 70798 (USA100/800)
  Avg ΣFIC (range): >1*
[1]; β-lactam combined with Scrambled PEP35, HA-MRSA 70798 (USA100/800)
  Avg ΣFIC (range): 0.38
[2]; [8]
  Avg ΣFIC (range): 0.49
[2]; β-lactam combined with HybPEP35-1, CA-MRSA 69615 (USA400)
  Avg ΣFIC (range): 0.70
[2]; β-lactam combined with PEP-52, CA-MRSA 69615 (USA400)
  Avg ΣFIC (range): >1*
[2]; β-lactam combined with Scrambled PEP35, CA-MRSA 69615 (USA400)
  Avg ΣFIC (range): 0.70
[3]; [11]
  Avg ΣFIC (range): 0.91
[3]; β-lactam combined with HybPEP35-1, VRSA 106
  Avg ΣFIC (range): 0.91
[3]; β-lactam combined with PEP-52, VRSA 106
  Avg ΣFIC (range): >1*
[3]; β-lactam combined with Scrambled PEP35, VRSA 106
  Avg ΣFIC (range): 0.91
